Data from patent publication US20120077818A1, “COMPOSITIONS COMPRISING TRANSNORSERTRALINE AND SEROTONIN RECEPTOR 1A AGONISTS/ANTAGONISTS AND USES THEREOF” (Sunovion Pharmaceuticals Inc., priority 2009, published 2012).
Entries after “also recorded” stand apart in the source; their conditions may differ.

System: dorsal raphe 5-HT neurons
Assay: In vivo electrophysiological recordings of dorsal raphe (DR) 5-HT neurons
Design: species or system rat
Description: Male Sprague Dawley rats (Charles River, St. Constant, QC) weighing 250 to 300 g, were used for the experiments. They were housed individually and kept under standard laboratory conditions (12:12 hour light/dark cycle with free access to food and water). All animals were handled according to the guidelines of the Canadian Council on Animal Care (CCAC) and protocols in this study were approved by the local Animal Care Committee (Ottawa Health Research Institute, Ottawa, ON, Canada).
Rats were anaesthetized with chloral hydrate (400 mg/kg; i.p.) and placed into a stereotaxic frame. The extracellular recordings of 5-HT neurons in the dorsal raphe (“DR”) were carried out using single-barrelled glass micropipettes (R&D Scientific Glass, Spencerville, Md.) preloaded with a 2 M NaCl solution. Their impedance typically ranged between 4-7 MΩ.
The single-barrelled glass micropipettes were positioned using the following coordinates (in mm from lambda): AP, +1.0 to 1.2; L, 0±0.1; V, 5 to 7. The presumed 5-HT neurons were then identified using the following criteria: a slow (0.5-2.5 Hz) and regular firing rate and long-duration (2-5 ms) bi- or triphasic extracellular waveform (Aghajanian and Vandermaelen, 1982b). […] This occasional firing pattern of 5-HT neurons was analyzed by spike interval burst analysis following the criteria set by Hajos et al. The onset of a burst was defined as the occurrence of two spikes with an interspike interval shorter than 0.005 s.
The percent of baseline firing rate were measured 60 seconds after systemic administration of the triple reuptake inhibitor. Various parameters were determined to examine the electrophysiological effects of co-administration of a transnorsertraline with WAY-100635. These parameters included the number of single spikes, bursts, cells per track and the firing rate of 5-HT neurons.
Electrophysiological data expressed as means±S.E.M of percent of baseline firing rate or as means±S.E.M of single spikes or bursts measured from the same neurons. Data were analyzed by using a one- or two-ways analysis of variance (ANOVA), with treatment, treatment and pre-treatment or treatment and brain region as main factors. Fisher's protected least significant difference test (Fisher's PLSD-test) was used to analyze the statistical significance between groups. The paired Student's t test was used in experiments comparing two groups. In each experiment, a level of p<0.05 was accepted as evidence for a statistically significant effect.

[1] = rats pre-treated with WAY-100635

Row | Structure (SMILES) | number of bursts of 5-HT neurons (effect in words) [1] | number of single spikes of 5-HT neurons (effect in words) [1] | DR 5-HT firing rate (effect in words) (rats pre-treated with WAY-100635, (1R,4S)-transnorsertraline 0.5-2 mg/kg iv) | spontaneous firing rate of DR 5-HT neurons (effect in words) (WAY-100635 alone, 100 μg/kg iv) | spontaneous firing rate of DR 5-HT neurons (WAY-100635 alone, 100 μg/kg iv, printed as 1.3±0.1 vs 1.4±0.1 (n=8), in Hz (unit assumed))
1 | N[C@@H]1CC[C@@H](c2ccc(Cl)c(Cl)c2)c2ccccc21 [(1R,4S)-transnorsertraline, (1R,4S)-trans-4-(3,4-dichlorophenyl)-1,2-3,4-tetrahydro-1-naphthalenamine] | significantly increased | significantly increased | significant increase; also recorded: markedly increased |  | 
2 | COc1ccccc1N1CCN(CCN(C(=O)C2CCCCC2)c2ccccn2)CC1 [WAY-100635, reference compound] |  |  |  | did not alter | 1.4±0.1
